Data taken from ChEMBL document CHEMBL1212907, “Activity of physalin F in a collagen-induced arthritis model” (J Nat Prod, 2010).
Activity calls are given as the source filed them. No cut-off for these calls is given here.

Tests used:
Format in all cases: functional, organism-based
Mus musculus [1] = assay: Immunomodulatory activity in ip dosed mouse lung assessed as reduction of eosinophils in bronchoalveolar lavage fluid
Mus musculus [2] = assay: Immunomodulatory activity in mouse assessed as inhibition of allergic airway inflammation at 60 mg/kg, ip; set-up: dose 60 mg/kg
Mus musculus [3] = assay: Antiinflammatory activity against collagen-induced arthritis in po dosed mouse assessed as inhibition of paw edema at 20 mg/kg, po after 20 days; set-up: dose 20 mg/kg
Mus musculus [4] = organism: Mus musculus; assay: Immunomodulatory activity in mouse assessed as reduction in ovalbumin-induced TH2 cytokine secretion by ELISA
Mus musculus [5] = assay: Antiinflammatory activity against collagen-induced arthritis in po dosed mouse assessed as synovial cell hyperplasia after 20 days
Mus musculus [6] = assay: Immunomodulatory activity in ip dosed mouse lung assessed as reduction in modulation of mucus production at 60 mg/kg; set-up: dose 60 mg/kg
Mus musculus [7] = assay: Immunomodulatory activity in ip dosed mouse lung assessed as reduction in inhibition of ovalbumin-induced intense cell filtration

Row | Compound | Activity (Mus musculus [1]) | inhibition (Mus musculus [2]) | inhibition (Mus musculus [3]) | Activity (Mus musculus [4]) | Activity (Mus musculus [5]) | Activity (Mus musculus [6]) | inhibition (Mus musculus [7])
1 | C[C@@H]1C[C@H]2[C@@H]3CCC4=CC(=O)C=C[C@]4(C)[C@@]3(F)[C@@H](O)C[C@]2(C)[C@@]1(O)C(=O)CO | Active |  |  |  |  |  | 
2 | C[C@@]12C[C@H]3OC(=O)[C@@H]1CO[C@]14O[C@]5([C@H]2C1=O)[C@@](O)(CC[C@H]1[C@H]4C[C@H]2O[C@]24CC=CC(=O)[C@]14C)C(=O)O[C@@]35C | inactive | inactive | Active | inactive | Active | inactive | Active
